# Several values for one entry are separate records, joined by “and”; a condition that tells them apart may be missing. Equal values may be shown once.
# Columns and labels:
# [1] = test system: IL17A; experiment: MatTek PSE culture system, IL17A mRNA by qPCR; assay type: cell-based, human; settings: after two days of treatment
# Protocol: (§1) Other markers of cell proliferation were also measured, namely (protein p21), and four markers of inflammatory signaling (IL17A, IL23A, TNF-α, and transforming growth factor beta (TGF-β)) in the MatTek PSE culture system after two days of treatment were also determined. Ki67 is a nuclear protein and a replication marker. The marker levels were determined by isolating total RNA by a Promega SV96 Total RNA Isolation Vacuum System (Promega, Madison, WI) according to the manufacturer's instructions. The total RNA was reverse transcribed using an ABI High Capacity cDNA reverse transcription kit (Applied Biosystems, Foster City, CA). Quantitative real-time polymerase chain reaction (qPCR) was performed with the use of a SYBR Green PCR Master Mix (Applied Biosystems) according to the manufacturer's protocol and amplified on a StepOnePlus Real-Time PCR System.
# [2] = test system: MatTek human PSE culture system (SOR-300-FT); experiment: MatTek human PSE culture system, tissue layer thickness and histology
# From the text: The thickness of each of the three tissue layers of skin was monitored and measured after two days and after six days of exposure to the treatment medium in a blinded fashion by a board-certified and nationally respected pathologist.
# [3] = test system: psoriasis; settings: Viglioglia et al. 1970; cited from earlier work
# [4] = test system: p21/Ki67; experiment: MatTek PSE culture system, ratio of p21 to Ki67 mRNA levels; assay type: cell-based, human; settings: after two days of treatment; treatment compositions of Table 5
# Protocol: Ki67 is a replication marker for cells and the lower the value, the lower the replication rate. P21 is a protein which is a marker for the inhibition of cell proliferation. Thus, an increased ratio of P21/Ki67 indicates decreased cell replication. FIG. 9 illustrates this ratio under several conditions as described in Example 2.
# as §1
# To highlight effects on cell proliferation, the ratio of p21 to Ki67 mRNA levels were calculated, with the results being shown in FIG. 9.
# [5] = test system: psoriasis; settings: oral administration; double-blind cross-over study, Feuerman et al. 1973; cited from earlier work
# [6] = test system: p21; experiment: MatTek PSE culture system, p21 mRNA by qPCR; assay type: cell-based, human; settings: after two days of treatment
# Protocol: as §1
# [7] = test system: TGF-β; experiment: MatTek PSE culture system, TGF-β mRNA by qPCR; assay type: cell-based, human; settings: after two days of treatment
# Protocol: as §1
# [8] = test system: IL23A; experiment: MatTek PSE culture system, IL23A mRNA by qPCR; assay type: cell-based, human; settings: after two days of treatment
# Protocol: as §1
# [9] = test system: TNF-α; experiment: MatTek PSE culture system, TNF-α mRNA by qPCR; assay type: cell-based, human; settings: after two days of treatment
# Protocol: as §1
# [10] = test system: Ki67; experiment: MatTek PSE culture system, Ki67 level by PCR; assay type: cell-based, human; settings: for Relative Ki67 Level: Day 6, normalized to control at Day 0 = 1.0; for Relative Expression Levels, Ki67: after two days of treatment
# Protocol: The level of Ki67 in the MatTek tissue culture system was also determined. Ki67 is a nuclear protein and a replication marker. The level of Ki67 was determined by polymerase chain reaction (PCR) analysis with standard protocols. The relative levels are normalized with respect to the measured Ki67 level of the control at Day 0, which is adjusted to 1.0.
# as §1
# [11] = test system: hand-foot syndrome; settings: topical; prevention of hand-foot syndrome; trial by Rodemer; cited from earlier work
# [12] = test system: HaCaT cells; experiment: M5 cocktail psoriasis-like HaCaT keratinocyte model, live and dead cell numbers by MultiTox-Glo Multiplex Cytotoxicity Assay; settings: for Cell Counts, 0 hours, Dead / Cell Counts, 0 hours, Live / Cell Ratios, 0 hours, Dead / Cell Ratios, 0 hours, Total: 0 hours (baseline); for Cell Counts, 0 hours, Dead / Cell Counts, 0 hours, Live / Cell Counts, 48 hours, Dead / Cell Counts, 48 hours, Total / Cell Counts, 72 hours, Dead / Cell Counts, 72 hours, Total: M5 cocktail, ± standard deviation; for Cell Ratios, 0 hours, Dead / Cell Ratios, 0 hours, Total / Cell Ratios, 48 hours, Dead / Cell Ratios, 48 hours, Total / Cell Ratios, 72 hours, Dead / Cell Ratios, 72 hours, Total: relative to 9177 live cells at zero hours
# Protocol: Immortalized human keratinocytes (HaCaT cells) purchased from AddexBio (San Diego, CA) were maintained in vitro in Dulbecco's modified Eagle's medium (DMEM) supplemented with 10% Fetal Bovine Serum (FBS) and antibiotics (100 U/mL penicillin and […] streptomycin) and cultured in an incubator with 5% CO2 at 37° C.
# HaCaT cells were seeded at approximately 50% density (1×10^4 cells/well) and after 16 h the medium was replaced with 50 μL of pre-treatment medium containing different concentrations of allopurinol (0, 0.5, or 3 mM) or methotrexate (1 μM) and placed back into the incubator. Treatment media was prepared using standard media containing vehicle control (PBS) or M5 cocktail.
# Other HaCaT cells were incubated in vitro for 72 hours in the presence of a M5 composition that also included 1.0 μM methotrexate, 0.5 mM allopurinol, 3.0 mM allopurinol, 0.5 mM oxypurinol, or 3.0 mM oxypurinol.
# The number of live and dead cells were determined by the MultiTox-Glo Multiplex Cytotoxicity Assay (Promega, Madison WI) according to the manufacturer's protocol. A dilution series of cells was used to generate a standard curve for calculation of cell number in each well. The total number of cells was the sum of the live and dead cells.
smiles,measurement,setting,value
Oc1ncnc2[nH]ncc12 [allopurinol],"Relative Expression Levels, IL17A",[1]; 0.5 mM,0.21 ± 0.07
same,"Relative Expression Levels, IL17A",[1]; 3 mM,0.09 ± 0.04
same,"Layer Thickness, Dermis","[2]; 0.5 mM, 2 days",0.4 mm
same,"Layer Thickness, Epidermis","[2]; 0.5 mM, 2 days",0.1 mm
same,"Layer Thickness, Stratum Corneum","[2]; 0.5 mM, 2 days",0.05 mm
same,"Layer Thickness, Dermis","[2]; 0.5 mM, 6 days",0.25 mm
same,"Layer Thickness, Epidermis","[2]; 0.5 mM, 6 days",0.1 mm
same,"Layer Thickness, Stratum Corneum","[2]; 0.5 mM, 6 days",0.05 mm
same,increase in dermis layer thickness from treatment for 2 days to 6 days,[2]; 3.0 mM allopurinol alone,1.4 fold
same,"Layer Thickness, Dermis","[2]; 3 mM, 2 days",0.25 mm
same,"Layer Thickness, Epidermis","[2]; 3 mM, 2 days",0.1 mm
same,"Layer Thickness, Stratum Corneum","[2]; 3 mM, 2 days",0.02 mm
same,"Layer Thickness, Dermis","[2]; 3 mM, 6 days",0.35 mm
same,"Layer Thickness, Epidermis","[2]; 3 mM, 6 days",0.15 mm
same,"Layer Thickness, Stratum Corneum","[2]; 3 mM, 6 days",0.1 mm
same,cases with excellent results,[3],50%
same,cases with good results,[3],34%
same,cases with moderate results,[3],16%
same,p21/Ki67 ratio (mRNA levels),[4],markedly increased
same,improvement in psoriasis versus placebo,[5],no improvement over a placebo
same,"Relative Expression Levels, p21",[6]; 0.5 mM,1.27 ± 0.10
same,"Relative Expression Levels, p21",[6]; 3 mM,1.40 ± 0.17
same,"Relative Expression Levels, TGF-β",[7]; 0.5 mM,0.90 ± 0.09
same,"Relative Expression Levels, TGF-β",[7]; 3 mM,0.60 ± 0.12
same,"Relative Expression Levels, IL23A",[8]; 0.5 mM,0.95 ± 0.20
same,"Relative Expression Levels, IL23A",[8]; 3 mM,0.66 ± 0.17
same,"Relative Expression Levels, TNF-α",[9]; 0.5 mM,0.75 ± 0.13
same,"Relative Expression Levels, TNF-α",[9]; 3 mM,0.82 ± 0.19
same,Relative Ki67 Level,[10]; 0.5 mM,3.18
same,"Relative Expression Levels, Ki67",[10]; 0.5 mM,0.27 ± 0.01
same,Relative Ki67 Level,[10]; 3 mM,0.96
same,"Relative Expression Levels, Ki67",[10]; 3 mM,0.42 ± 0.09
same,clinical efficacy endpoint,[11],did not meet its clinical efficacy endpoint
same,"Cell Counts, 0 hours, Dead",[12]; 0.5 mM,801 ± 19
same,"Cell Counts, 0 hours, Live",[12]; 0.5 mM,9177 ± 90
same,"Cell Ratios, 0 hours, Dead",[12]; 0.5 mM,0.087
same,"Cell Ratios, 0 hours, Total",[12]; 0.5 mM,1.087
same,"Cell Counts, 48 hours, Dead",[12]; 0.5 mM,2319 ± 141
same,"Cell Counts, 48 hours, Total",[12]; 0.5 mM,11705 ± 161
same,"Cell Ratios, 48 hours, Dead",[12]; 0.5 mM,0.253
same,"Cell Ratios, 48 hours, Total",[12]; 0.5 mM,1.275
same,"Cell Counts, 72 hours, Dead",[12]; 0.5 mM,4024 ± 166
same,"Cell Counts, 72 hours, Total",[12]; 0.5 mM,13428 ± 216
same,"Cell Ratios, 72 hours, Dead",[12]; 0.5 mM,0.44 and 0.438
same,"Cell Ratios, 72 hours, Total",[12]; 0.5 mM,1.46 and 1.463
same,"Cell Counts, 0 hours, Dead",[12]; 3.0 mM,801 ± 19
same,"Cell Counts, 0 hours, Live",[12]; 3.0 mM,9177 ± 90
same,"Cell Ratios, 0 hours, Dead",[12]; 3.0 mM,0.087
same,"Cell Ratios, 0 hours, Total",[12]; 3.0 mM,1.087
same,"Cell Counts, 48 hours, Dead",[12]; 3.0 mM,1275 ± 117
same,"Cell Counts, 48 hours, Total",[12]; 3.0 mM,9038 ± 176
same,"Cell Ratios, 48 hours, Dead",[12]; 3.0 mM,0.139
same,"Cell Ratios, 48 hours, Total",[12]; 3.0 mM,0.985
same,"Cell Counts, 72 hours, Dead",[12]; 3.0 mM,2004 ± 168
same,"Cell Counts, 72 hours, Total",[12]; 3.0 mM,9367 ± 280
same,"Cell Ratios, 72 hours, Dead",[12]; 3.0 mM,0.22 and 0.218
same,"Cell Ratios, 72 hours, Total",[12]; 3.0 mM,1.02 and 1.021
N[C@@H](CCC(=O)N[C@@H](CS)C(=O)NCC(=O)O)C(=O)O [glutathione],"Relative Expression Levels, IL17A",[1]; 3 mM,0.04 ± 0.02
same,"Layer Thickness, Dermis","[2]; 3 mM, 2 days",0.3 mm
same,"Layer Thickness, Epidermis","[2]; 3 mM, 2 days",0.2 mm
same,"Layer Thickness, Stratum Corneum","[2]; 3 mM, 2 days",0.15 mm
same,p21/Ki67 ratio (mRNA levels),[4],markedly increased
same,"Relative Expression Levels, p21",[6]; 3 mM,1.35 ± 0.06
same,"Relative Expression Levels, TGF-β",[7]; 3 mM,0.77 ± 0.10
same,"Relative Expression Levels, IL23A",[8]; 3 mM,0.79 ± 0.14
same,"Relative Expression Levels, TNF-α",[9]; 3 mM,0.29 ± 0.07
same,"Relative Expression Levels, Ki67",[10]; 3 mM,0.27 ± 0.01

# Source: US20250114362A1, “METHODS AND COMPOSITIONS FOR TREATMENT OF CUTANEOUS PROLIFERATIVE DISORDERS AND OTHER SKIN CONDITIONS” (ASYMMETRIC THERAPEUTICS, LLC, priority 2022, published 2025)
